Laboratory results published in patent US8741299B2, “Method for treating pathologies associated with hypoxia using MIF inhibitors” (The Feinstein Institute for Medical Research, priority 2011, dated 2014).
“Also recorded” adds a separate entry of the source.

What was measured:
C57BL6 mice = assay: Mouse hypoxia model of pulmonary vascular remodeling and hypertension; assay type: in vivo
Excerpt: Hypoxia in vivo: C57BL6 mice (male, 8˜10 weeks old) were purchased from Taconic Farms Inc. (Hudson, N.Y.). All the animals were housed in a pathogen-free environment, under standard light and dark cycles, with free access to food and water until they were used for the experiments. All experiments involving animals were reviewed and approved by Institutional Animal Care and Use Committee of The Feinstein Institute for Medical Research. An animal hypoxia chamber system (BioSpherix, Lacona, N.Y.) was used for the in vivo studies. […] Mice were randomly divided into 4 groups and treated with normoxia, or hypoxia for 3, 10, or 42 days. At the time of euthanasia, animals were anesthetized with isoflurane and 100% oxygen. A 26 gauge needle connected to a transducer was introduced into the right ventricular trans-diaphragmatically. The right ventricular (RV) pressure was measured and recorded using a computerized hemodynamic recording system (HAEMODYN, Harvard Apparatus, Mass.). After the RV pressure measurement, blood was taken from the RV and plasma was stored in −80° C. for MIF measurement. The mice were then euthanized by exsanguination. The hearts were removed, dissected and weighed. The heart weights were expressed as a ratio of the weight of the right ventricle to the weight of the left ventricle+septum (RV/S+LV). The lung was also collected; the left side was used for measure MIF mRNA expression, and the right side fixed, at inflation, in 4% paraformaldehyde for lung vascular histology study. […] Immediately after sub-cutaneous pump implantation on the dorsum of the animals, the mice were put into hypoxia chamber undergoing 10% normobaric hypoxia for 10 days or 21 days. At the indicated times, the RV pressure, heart weight (RV/S+LV), and vascular changes were determined in each group using the methods described above. Vascular wall thickness: Lung tissues were immunostained using anti α-smooth muscle actin (α-SMA) antibody (Abcam Inc, Cambridge Mass.) to reveal the muscular layer of the vessel wall. External diameter (ED) and internal diameter (ID) of 50 alveolar vessels (with ED of 40 to 100 μm) per animal were determined and recorded, by an independent investigator blinded to the sample's origin. The total wall thickness (WT) was measured as the mean distance between the internal and the external diameter. The percentage wall thickness (WT %) was calculated by the formula: WT %=2×WT/ED×100%. (38).

CCL-210 cells = assay: Lactate dehydrogenase release into the medium of treated cells (cytotoxicity); assay type: cell-based, human; details: at the concentration used (100 μM elsewhere in the source), data not shown
[1] = test system: primary lung fibroblasts (mif-/-); assay: Proliferation of primary mif-/- lung fibroblasts in hypoxia with conditioned medium from hypoxic mif+/+ cells; assay type: cell-based, mouse; details: 1% oxygen; vs carrier DMSO
Experimental: Primary lung fibroblasts from MIF knockout (mif−/−) or their counterpart wild type C57BL6 mice (mif+/+) were established by using outgrowth from lung explants (36). Briefly, mouse lungs were removed using aseptic technique, carefully dissected free of connective tissue and fat, and cut into small pieces (<1 mm). These lung tissue pieces were cultured in a dish containing EMEM, 10% FBS, and 1% penicillin/streptomycin, at 37° C., 5% CO2 in air. Medium was changed twice a week. After about two weeks, fibroblasts had reached approximately 80% confluence. The fibroblasts were removed by trypsin and filtered using a sterilized 100-μm nylon cell strainer (Falcon) to remove any remaining tissue pieces. […]
(§1) Cell proliferation assessments: 5-bromo-2-deoxyuridine (BrdU) incorporation measured by a commercially available kit (Calbiochem, EMD Chemical Inc., Gibbstown, N.J.) was used to quantify the fibroblast proliferation, BrdU is incorporated into the newly synthesized DNA of replicating cells (during the S phase of the cell cycle). […] BrdU incorporated in newly synthesized DNA was detected with a BrdU antibody using chemiluminescence for quantification. […]
To further examine the role of MIF in hypoxia-induced fibroblast proliferation, the ability of primary lung fibroblasts (mif^−/− and mir^+/+) cultured under normoxic and hypoxic conditions for 24 hrs, was assessed. […]

mouse brain = assay: MicroPET 18F-FDG uptake in the brain of hypoxic mice; assay type: in vivo
Excerpt: MicroPET scanning MicroPET scanning can be conducted using an appropriate system, such as Siemen's Inveon. The Inveon is a dedicated small animal positron emission tomography (PET) scanner housed in the Feinstein Institute for Medical Research. This scanner is an ultra-high resolution tomography that includes a built-in transmission source used for the quantitative assessment of radiotracer binding. The use of ^18FDG is preferred.
Scanning methods: All animals being scanned are housed in the Center for Comparative Physiology, within the Feinstein Institute. Animals receive an intraperitoneal (i.p.) injection of ^18FDG (between 1-2 mCi). […] Significant differences in absolute and region-of-interest to whole-brain relative metabolic glucose uptake are analyzed using student t-tests and repeated measures ANOVA.
Further developing these studies, it is herein disclosed that inhibition of MIF prevented altered 2-deoxy-2-(^18F)fluoro-D-glucose (^18F-FDG) uptake in the brain of hypoxic mice (FIG. 8). […] In this study, a standardized uptake value (SUV) (56) was used, a simple semi-quantitative index, calculated by measuring the activity concentration in a region of interest (ROI) during a short-duration (10 min) static scan acquired 60 min after injection and then normalized for the injected dose or weight of the animal. […]

mice = assay: Clock maze task (spatial working memory) in hypoxic mice; assay type: in vivo, mouse; details: hypoxia, ISO-92 delivered to the dorsal hippocampus via osmotic pumps, n=4
Experimental: Clock maze: A navigational test is used to measure spatial working memory, modified from Deacon and Rawlins (2002). The apparatus (termed “clock maze”) is a circular base platform (diameter, 85 cm) surrounded by a clear wall (30 cm high), sealed to the base by aquarium sealant to make it waterproof. Cold water (20° C.±1° C.) is added to a depth of 2 cm, sufficient to wet the underside of the belly of mice. The perimeter wall is pierced by 12 holes, 4 cm in diameter, arranged equidistantly around the circumference so that they are 23 cm apart. The lower edge of each hole is 3 cm above the maze floor, that is, at mouse head level. Eleven of these tubes were sealed with black plugs, flush with the internal pool wall surface; one is open and led to an escape pipe, which is 4 cm in diameter, made of black flexible plastic. Thus, from within the clock maze, the true exit looks similar to the decoys, even to the human eye. […] The animal is placed facing one of the long sides in a semi-random fashion (not more than 3 consecutive times the same way) and the time taken to enter the open tube was recorded by software (Ethovision). […] The latency to reach the target is recorded by software (Ethovision) with a maximum of 60 sec for each trial. […]
The navigational test that measured spatial working memory was modified from Deacon and Rawlins (2002). […]

[2] = test system: Human lung fibroblasts (CCL-210); assay: Hypoxia-induced proliferation of human lung fibroblasts (BrdU incorporation, cell counts); assay type: cell-based
Experimental: Cell culture studies: Human lung fibroblasts (CCL-210) were purchased from American Type Culture Collection (ATCC, Manassas, Va.). Cells were cultured in Eagle Minimum Essential Medium (EMEM) (ATCC, Manassas, Va.) with 10% fetal bovine serum (FBS) at 37′C, 5% CO2. The cells were subcultured using standard procedures and were used for experiment during passages 3 to 10.
as §1, with “cycle). The assay was performed according to the manufacturer's instructions.” for “cycle).”
Hypoxia in vitro: A modular incubator chamber (Billups-Rothenberg Inc., Del Mar, Calif.) was used for the cell hypoxia studies. To induce hypoxia, the chamber was tightly closed and flushed with a gas mixture consisting of 95% nitrogen and 5% CO2 until the desired ambient oxygen concentration of 1% was reached as measured using an oxygen sensor (BioSpherix, Lacona, N.Y.). […]
Cell proliferation, under both normoxic and hypoxic conditions, was then determined using the methods described above.

[3] = 1.8 mg/kg/day s.c. osmotic pump, 10% oxygen, 10 or 21 days

## CC(C)(C)COC(=O)CC1CC(c2ccc(O)c(F)c2)=NO1 (stereo not drawn) [ISO-92]
C57BL6 mice; [3]
  right ventricle hypertrophy (RV/S+LV): significantly reduced
  right ventricular systolic pressure (RVSP), effect in words: significantly reduced
  vascular wall thickness (VascularWT %) / pulmonary vascular remodeling: significantly reduced
C57BL6 mice; at 21 days hypoxia, normoxia 13.8±2.3, vehicle 20.2±1.4
  right ventricular systolic pressure: 16.8±1.5 mm Hg
C57BL6 mice; at 21 days hypoxia, relative to vehicle and normoxia
  reduction of right ventricular systolic pressures: approximately 53%
CCL-210 cells
  cytotoxicity / lactate dehydrogenase release into culture medium: not cytotoxic; also recorded: nor did it cause accumulation of lactate dehydrogenase
[1]
  increased proliferation of mif-/- fibroblasts induced by conditioned medium from hypoxic mif+/+ cells: abrogated; also recorded: inhibitable; also recorded: inhibited
Mouse brain; 10 days 10% hypoxia, ISO-92 via osmotic pump
  hypoxia-induced increase in brain glucose metabolism (18FDG images): blocked completely
Mouse brain; 10 days hypoxia, differences not statistically significant
  semi-quantitative 18F-FDG uptake (SUV) of specific brain regions, median value: lower in each case
mice
  performance in the clock maze task (working memory): completely normal performance
[2]; CCL-210, 100 μM ISO-92, normoxia
  growth of cells cultured in normoxic conditions: no effect
[2]; CCL-210, 1% oxygen, 24 hrs, vs vehicle DMSO
  hypoxia-induced cell proliferation: inhibited by ISO-92 in a dose-dependent manner; also recorded: able to inhibit hypoxia-driven proliferation; also recorded: inhibited proliferation in a dose-dependent manner
